In the NIST ThermoML archive (doi:10.1021/je900660x):

Key:
[1] = for mass density / viscosity / thermal conductivity: 101.33 kPa, Liquid; for mass density: Vibrating tube method; for thermal conductivity: Hot wire method
[2] = molar heat capacity at constant pressure; settings: 101.33 kPa, Liquid, Large sample (1 g) DSC

CCCC[N+](C)(CCCC)CCCC.C[C@@H](O)[C@H](N)C(=O)[O-] [N,N-dibutyl-N-methyl-1-butanaminium L-threoninate]
Settings	Glass transition temperature, [1] [°C]	mass density, [1] [kg/m3]	molar heat capacity at constant pressure, [2] [J/K/mol]	thermal conductivity, [1] [W/m/K]	viscosity, [1] [mPa·s]
293.15 K	–	1002.6	748.5	–	–
298.15 K	–	999.5	752.6	0.16	8368
303.15 K	–	996.4	757.1	0.159	4916
313.15 K	–	990	766.9	0.158	1845
323.15 K	–	983.7	777.4	0.157	791.3
333.15 K	–	977.7	789.2	0.156	377.6
343.15 K	–	971.7	801	0.155	200.6
353.15 K	–	965.7	811.5	0.154	110.9
363.15 K	–	959.8	821.1	–	66.2
DTA	-51.94	–	–	–	–

CCCC[P+](CCCC)(CCCC)CCCC.NCCCC[C@H](N)C(=O)[O-] [tetrabutylphosphonium L-lysinate]
Settings	Glass transition temperature, [1] [°C]	mass density, [1] [kg/m3]	molar heat capacity at constant pressure, [2] [J/K/mol]	thermal conductivity, [1] [W/m/K]	viscosity, [1] [mPa·s]
293.15 K	–	970.5	987.3	–	–
298.15 K	–	967.5	997.4	0.163	741
303.15 K	–	964.4	1004.3	0.163	519.8
313.15 K	–	958.4	1021.3	0.162	268.7
323.15 K	–	952.3	1040.3	0.161	149.7
333.15 K	–	946.2	1060.1	0.16	90.4
343.15 K	–	940.3	1077.9	0.159	59.8
353.15 K	–	934.4	1096.5	0.158	39.7
363.15 K	–	928.6	1111.5	–	27.5
DTA	-66.7	–	–	–	–

CCCC[N+](C)(CCCC)CCCC.NCCCC[C@H](N)C(=O)[O-] [N,N-dibutyl-N-methyl-1-butanaminium L-lysinate]
Settings	Glass transition temperature, [1] [°C]	mass density, [1] [kg/m3]	molar heat capacity at constant pressure, [2] [J/K/mol]	thermal conductivity, [1] [W/m/K]	viscosity, [1] [mPa·s]
293.15 K	–	982.9	817.3	–	–
298.15 K	–	979.7	823.8	0.171	2593
303.15 K	–	976.7	830.8	0.17	1679
313.15 K	–	970.7	845.6	0.169	741.4
323.15 K	–	964.7	861.2	0.168	368.6
333.15 K	–	958.6	877.7	0.167	200.2
343.15 K	–	952.7	893.3	0.166	112.9
353.15 K	–	946.8	909.5	0.165	68.3
363.15 K	–	940.8	925.1	–	43.9
DTA	-59.39	–	–	–	–

CCCC[P+](CCCC)(CCCC)CCCC.O=C([O-])[C@@H]1CCCN1 [tetrabutylphosphonium L-prolinate]
Settings	Glass transition temperature, [1] [°C]	mass density, [1] [kg/m3]	molar heat capacity at constant pressure, [2] [J/K/mol]	thermal conductivity, [1] [W/m/K]	viscosity, [1] [mPa·s]
293.15 K	–	995.7	838	–	–
298.15 K	–	992.5	844.2	0.154	1695
303.15 K	–	989.1	850.4	0.153	1101
313.15 K	–	983	864.1	0.152	483.5
323.15 K	–	976.9	879.7	0.151	241.3
333.15 K	–	970.8	894.8	0.15	133.1
343.15 K	–	964.6	910.1	0.149	78.2
353.15 K	–	958.6	925.8	0.148	49.6
363.15 K	–	952.6	939.4	–	32.2
DTA	-65.87	–	–	–	–

CCCC[P+](CCCC)(CCCC)CCCC.N[C@@H](CS)C(=O)[O-] [tetrabutylphosphonium L-cysteinate]
Settings	Glass transition temperature, [1] [°C]	mass density, [1] [kg/m3]	molar heat capacity at constant pressure, [2] [J/K/mol]	thermal conductivity, [1] [W/m/K]	viscosity, [1] [mPa·s]
293.15 K	–	1037.2	913.7	–	–
298.15 K	–	1033.7	919.8	0.152	2946
303.15 K	–	1030	926.6	0.151	1866
313.15 K	–	1023.8	942.5	0.15	832.7
323.15 K	–	1017.8	959.6	0.149	397.4
333.15 K	–	1011.7	977.1	0.148	208.4
343.15 K	–	1005.4	993.4	0.147	118.3
353.15 K	–	999.1	1008.2	0.146	72.5
363.15 K	–	993	1021.5	–	46.6
DTA	-29.68	–	–	–	–

CCCC[P+](CCCC)(CCCC)CCCC.C[C@@H](O)[C@H](N)C(=O)[O-] [tetrabutylphosphonium L-threoninate]
Settings	Glass transition temperature, [1] [°C]	mass density, [1] [kg/m3]	molar heat capacity at constant pressure, [2] [J/K/mol]	thermal conductivity, [1] [W/m/K]	viscosity, [1] [mPa·s]
293.15 K	–	983	952.2	–	–
298.15 K	–	979.9	961.3	0.156	739
303.15 K	–	976.9	970.7	0.155	519.8
313.15 K	–	970.7	991.5	0.154	260.1
323.15 K	–	964.6	1012.6	0.153	143.2
333.15 K	–	958.5	1033.4	0.152	88.5
343.15 K	–	952.5	1055.7	0.152	53.9
353.15 K	–	946.6	1076.4	0.151	36.2
363.15 K	–	940.7	1097.2	–	25.1
DTA	-60.72	–	–	–	–

CC(C)[C@H](N)C(=O)[O-].CCCC[P+](CCCC)(CCCC)CCCC [tetrabutylphosphonium L-valinate]
Settings	Glass transition temperature, [1] [°C]	mass density, [1] [kg/m3]	molar heat capacity at constant pressure, [2] [J/K/mol]	thermal conductivity, [1] [W/m/K]	viscosity, [1] [mPa·s]
293.15 K	–	–	743.7	–	–
298.15 K	–	–	747.4	–	–
303.15 K	–	–	751.6	–	–
313.15 K	–	932.1	761.3	0.157	216.9
323.15 K	–	926	771.5	0.156	120
333.15 K	–	919.9	781.2	0.155	70.8
343.15 K	–	913.9	791.4	0.154	44.8
353.15 K	–	908	801.1	0.153	29.6
363.15 K	–	902.1	810.9	–	20.3
DTA	-65.56	–	–	–	–

Settings	Normal melting temperature [°C]
[1], Crystal, DTA	25.77

CCCC[P+](CCCC)(CCCC)CCCC.NCCS(=O)(=O)[O-] [tetrabutylphosphonium 2-aminoethanesulfonate]
Settings	Glass transition temperature, [1] [°C]	mass density, [1] [kg/m3]	molar heat capacity at constant pressure, [2] [J/K/mol]	viscosity, [1] [mPa·s]
293.15 K	–	1030.1	987.7	–
298.15 K	–	1026.8	994.6	1019
303.15 K	–	1023.7	1001.6	712.6
313.15 K	–	1017.6	1015	345.5
323.15 K	–	1011.5	1028.4	186.2
333.15 K	–	1005.3	1042.6	106.7
343.15 K	–	999.2	1057.6	67.5
353.15 K	–	993.3	1073.7	44.2
363.15 K	–	987.3	1088.6	29.6
DTA	-58.14	–	–	–

CCCC[N+](C)(CCCC)CCCC.NCCS(=O)(=O)[O-] [N,N-dibutyl-N-methyl-1-butanaminium 2-aminoethanesulfonate]
Settings	Glass transition temperature, [1] [°C]	mass density, [1] [kg/m3]	molar heat capacity at constant pressure, [2] [J/K/mol]	viscosity, [1] [mPa·s]
293.15 K	–	1054.1	822.3	–
298.15 K	–	1051.1	826.9	6674
303.15 K	–	1048.1	831.7	3965
313.15 K	–	1041.6	842.5	1600
323.15 K	–	1035.7	853.2	716
333.15 K	–	1029.8	863.2	357.5
343.15 K	–	1023.9	872.6	193.4
353.15 K	–	1018	882.4	108.2
363.15 K	–	1012.1	891.5	66.8
DTA	-54.23	–	–	–

CCCC[N+](C)(CCCC)CCCC.N[C@@H](CO)C(=O)[O-] [N,N-dibutyl-N-methylbutanaminium L-serinate]
Settings	Glass transition temperature, [1] [°C]	mass density, [1] [kg/m3]	molar heat capacity at constant pressure, [2] [J/K/mol]	thermal conductivity, [1] [W/m/K]	viscosity, [1] [mPa·s]
293.15 K	–	1018.8	632.4	–	–
298.15 K	–	1015.7	634.8	0.169	10214
303.15 K	–	1012.6	637.6	0.168	5845
313.15 K	–	1006.3	643.6	0.167	2160
323.15 K	–	999.9	651	0.166	890.7
333.15 K	–	993.9	658	0.165	410.3
343.15 K	–	987.9	665	0.164	207.9
353.15 K	–	981.9	672.9	0.163	111.8
363.15 K	–	975.6	680.8	–	64.3
DTA	-50.59	–	–	–	–

CCCC[P+](CCCC)(CCCC)CCCC.N[C@@H](CO)C(=O)[O-] [tetrabutylphosphonium L-serinate]
Settings	Glass transition temperature, [1] [°C]	mass density, [1] [kg/m3]	molar heat capacity at constant pressure, [2] [J/K/mol]	viscosity, [1] [mPa·s]
293.15 K	–	995.5	742	–
298.15 K	–	992.3	748.5	1143
303.15 K	–	989.2	755.1	778.4
313.15 K	–	983	765.6	395.4
323.15 K	–	976.9	776.5	209.4
333.15 K	–	970.8	787.4	122.9
343.15 K	–	964.8	797.6	77.6
353.15 K	–	958.9	807.8	49.7
363.15 K	–	953	814.7	34.1
DTA	-59.38	–	–	–
